# Patent publication US20260240842A1, “METHODS TO PREVENT THERAPY RESISTANCE IN MELANOMA VIA BLOCKING GENOMIC INSTABILITY” (THE REGENTS OF THE UNIVERSITY OF CALIFORNIA, priority 2022, published 2026)
# Tested on: HSR harboring BRAF in M249 cells
# Assay: Metaphase DNA-FISH tracking emergence of BRAF HSR
# Type: cell-based, human
# Conditions: M249, day 31; DNA-PKi and/or PARPi given in combination with BRAFi+MEKi; FIG. 5G
# From the text: FIGS. 5A-5H. Resistance-driver ecDNAs and HSRs dynamically track with resistance and DNA-PKi prevents size-expansion of ecDNAs and CGRs early on MAPKi treatment. FIGS. 5A to 5C, Metaphase DNA-FISH of paired parental and acquired resistant BRAF^V600MUT (5A and 5B) or NRAS^Q61MUT (5C) cell lines without or with drug withdrawal showing ecDNA- or HSR-amplicons harboring BRAF, RAF1 or NRAS. Left, representative images; right, quantifications per cell. Ruler, 15 μm. P values (Unpaired two-tailed Student's t-test): *, p<0.05; **, p<0.01; ***, p<0.001. FIGS. 5D to 5F: Three- (upper) and six-(lower) day MTT assay of indicated cell lines treated with graded concentrations of BRAFi+MEKi (5D and 5E) or MEKi (5F). Cell viability was normalized to respective DMSO/vehicle group. Inner brackets, comparisons between acquired-resistant sub-lines without and with drug withdrawal. Outer brackets, comparisons between acquired-resistant sub-lines and their isogenic parental cell lines. […] FIG. 5G: Representative images (left) and quantification (right) of metaphase DNA-FISH showing HSR harboring BRAF in M249 cells treated with vehicle or BRAFi+MEKi, with or without NU7026 and/or ABT888 for 31 days. […] FIG. 5H: Average total genomic spans of treatment-specific ecDNAs+CGRs in M229 and M245 cell lines (background ecDNA+CGR spans detected in vehicle-treated cells were filtered). […]
row,SMILES,BRAF HSRs early on treatment
1,"C[C@]1(c2nc3c(C(N)=O)cccc3[nH]2)CCCN1 [ABT888, veliparib]",suppression
2,O=c1cc(N2CCOCC2)oc2c1ccc1ccccc12 [NU7026],suppression
